Source: US6376426B1, “Herbicidal 3-(heterocycl-1-yl)-uracils” (BASF Aktiengesellschaft, priority 1999, dated 2002)

How the values were obtained:
Assay type in all cases: in vivo
[1] = system: Glycine max; assay: Post-emergence herbicidal test, GLXMA; design: key: A rating 0 indicates growth as untreated control; a rating 9 indicates death; settings: 0-9 scale, 21 days after spraying
Protocol: To evaluate their herbicidal activity, compounds according to the invention are tested using a representative range of plants:
[…] After spraying, the plants are placed on greenhouse benches and are cared for in the usual manner, commensurate with conventional greenhouse practices.
The herbicidal effects of the test compounds are assessed visually twenty-one days after spraying the foliage and the soil and are recorded on a 0-9 scale. A rating 0 indicates growth as untreated control, a rating 9 indicates death. An increase of 1 unit on the linear scale approximates to a 10% increase in the level of effect.

[2] = system: Galium aparine; assay: Post-emergence herbicidal test, GALAP; design: key to herbicidal effect (0-9 scale) GALAP / herbicidal rating GALAP: A rating 0 indicates growth as untreated control; a rating 9 indicates death; settings: for herbicidal rating GALAP: POST, 0-9 scale, 21 days after spraying
Procedure, shortened: (§1)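 Herbicidal effect is recorded on a linear 0-9 scale, where 0 means growth like untreated control and 9 means death, with one unit approximating 10% more effect.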

[3] = system: Echinochloa crus-galli; assay: Pre-emergence herbicidal test, ECHCG; design: key: A rating 0 indicates growth as untreated control; a rating 9 indicates death; settings: 0-9 scale, 21 days after spraying
[4] = system: Stellaria media; assay: Pre-emergence herbicidal test, STEME; design: key to herbicidal effect (0-9 scale) STEME / herbicidal rating STEME: A rating 0 indicates growth as untreated control; a rating 9 indicates death; settings: for herbicidal rating STEME: PRE, 0-9 scale, 21 days after spraying
[5] = system: Echinochloa crus-galli; assay: Post-emergence herbicidal test, ECHCG; design: key: A rating 0 indicates growth as untreated control; a rating 9 indicates death; settings: 0-9 scale, 21 days after spraying
Procedure, shortened: as §1

[6] = system: Alopecurus myosuroides; assay: Post-emergence herbicidal test, ALOMY; design: key: A rating 0 indicates growth as untreated control; a rating 9 indicates death; settings: 0-9 scale, 21 days after spraying
Procedure, shortened: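 Test plants in pots received water-diluted acetone formulations by post-emergence spraying, dosed near 100-1000 g/ha.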

[7] = system: Matricaria inodora; assay: Post-emergence herbicidal test, MATIN; design: key to herbicidal effect (0-9 scale) MATIN / herbicidal rating MATIN: A rating 0 indicates growth as untreated control; a rating 9 indicates death; settings: for herbicidal rating MATIN: POST, 0-9 scale, 21 days after spraying
Procedure, shortened: as §1

SMILES: Cn1c(C(F)(F)F)cc(=O)n(-n2ccc3c(Cl)cccc32)c1=O [Example 169, 3-(4-Chloro-indol-1-yl)-1-methyl-6-trifluoromethylpyrimidine-2,4-dione]
- herbicidal rating GLXMA ([1]; 25 g/ha): 5
- herbicidal rating GLXMA ([1]; 100 g/ha): 7
- herbicidal rating GLXMA ([1]; 400 g/ha): 9
- herbicidal rating GALAP ([2]; 25 g/ha): 9
- herbicidal rating GALAP ([2]; 100 g/ha): 9
- herbicidal rating GALAP ([2]; 400 g/ha): 9
- control of Galium ([2]; post-emergence, 12.5 g/ha): excellent control
- herbicidal rating ECHCG ([3]; 12.5 g/ha): 4
- herbicidal rating ECHCG ([3]; 25 g/ha): 7
- herbicidal rating ECHCG ([3]; 100 g/ha): 9
- herbicidal rating ECHCG ([3]; 400 g/ha): 9
- herbicidal rating STEME ([4]; 12.5 g/ha): 6
- herbicidal rating STEME ([4]; 25 g/ha): 8
- herbicidal rating STEME ([4]; 100 g/ha): 9
- herbicidal rating STEME ([4]; 400 g/ha): 9
- control of Stellaria ([4]; pre-emergence, 25 g/ha): good control
- herbicidal rating ECHCG ([5]; 25 g/ha): 5
- herbicidal rating ECHCG ([5]; 100 g/ha): 9
- herbicidal rating ECHCG ([5]; 400 g/ha): 9
- herbicidal rating ALOMY ([6]; 25 g/ha): 2
- herbicidal rating ALOMY ([6]; 100 g/ha): 6
- herbicidal rating ALOMY ([6]; 400 g/ha): 9
- herbicidal rating MATIN ([7]; 25 g/ha): 8
- herbicidal rating MATIN ([7]; 100 g/ha): 9
- herbicidal rating MATIN ([7]; 400 g/ha): 9
- control of Matricaria ([7]; post-emergence, 12.5 g/ha): excellent control
